Measured values taken from patent EP3889262A1, “INHIBITION OF CASPASE-3 BY THE MICRORNA 126-5P” (Ludwig-Maximilians-Universität München, priority 2020, dated 2021).
pIC50: −log10 of the molar value. Peptide text beside a SMILES is read from it. * marks the point of attachment. Cbz = O=C(OCc1ccccc1)*; CH2F = FC*

How the values were obtained:
HUVECs = experiment: qPCR of miR-126 strand amounts and nucleo-cytoplasmic distribution in HUVECs; type: cell-based, human; details: for nuclear miR-126-5p: fractional qPCR, ivermectin with rapamycin, 3-methyladenine with KLF2 overexpression
Description: HUVECs were treated with rapamycin (Santa Cruz Biotechnology) at 5 µM, ivermectin (Santa Cruz Biotechnology) at […], 3-methyladenine (Sigma Aldrich) at 5 mM, and/or camptothecin (Abcam) at 500 nM. Unless stated otherwise, treatment was applied for 3 h to analyze early processes and to avoid activation of concomitant or compensatory mechanisms. RNA interference technology was applied to generate specific knockdowns with siRNA against ATG5, ATG7, Mex3a (Qiagen). Functional studies on miRNA function were carried with miScript miRNA mimics and inhibitors of miR-126-5p (Qiagen). Overexpression of KLF2 and Mex3a were obtained by pCMV-hKLF2 and pCMV-hMex3a plasmids. Transfections were performed by electroporation using Amaxa Nucleofector technology (Lonza) or Lipofectamine™ 2000 (ThermoFisher Scientific) according to the manufacturer's protocols.

recombinant caspase-3 = target: T1, recombinant caspase-3 (Homo sapiens, UniProt P42574); experiment: Cell-free analysis of caspase-3 activity (substrate cleavage); type: biochemical; details: substrate cleavage by recombinant caspase-3, cell-free
T1 sequence (P42574 29-175 limits assumed): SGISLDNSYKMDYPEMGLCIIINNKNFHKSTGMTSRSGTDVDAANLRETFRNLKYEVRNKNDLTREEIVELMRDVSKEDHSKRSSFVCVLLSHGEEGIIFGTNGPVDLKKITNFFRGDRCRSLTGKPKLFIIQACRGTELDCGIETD
T1 sequence (P42574 176-277 limits assumed): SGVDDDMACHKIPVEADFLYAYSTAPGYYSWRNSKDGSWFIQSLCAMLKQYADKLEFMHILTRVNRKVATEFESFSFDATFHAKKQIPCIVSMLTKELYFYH

Row | Molecule | nuclear miR-126-5p (HUVECs) | further results
1 | CO/C1=C\C(C)=C\[C@@H](C)[C@@H](O)[C@@H](C)C/C(C)=C/C=C/[C@H](OC)[C@@H]([C@@H](C)[C@@H](O)[C@H](C)[C@@]2(O)C[C@@H](O)[C@H](C)[C@@H](C(C)C)O2)OC1=O [bafilomycin] | – | amount of miR-126-3p (HUVECs; ECs): restored
2 | Cn1cnc(N)c2ncnc1-2 [3-methyladenine] | blunted | –
3 | COC(=O)C[C@H](NC(=O)[C@H](C)NC(=O)[C@@H](NC(=O)OCc1ccccc1)C(C)C)C(=O)CF [Z-VAD-FMK] (Cbz-Val-Ala-Asp(OMe)-CH2F) | – | pIC50 (recombinant caspase-3): 4.12
4 | ivermectin | prevented | –
